According to ChEMBL document CHEMBL1201862, “PubChem BioAssay data set” (2004):
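In this assay, cells in 96-well plates receive the compound at five concentrations for 48 hours. Endpoints are linearly interpolated between the surrounding concentrations. The concentration for 50% growth inhibition is given as GI50.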 Activity calls are given as the source filed them. No stated cut-off is given here; in the data, active = GI50 up to about 1.1 µM and inactive = higher.

How the values were obtained:
Test in all cases: growth of human tumour cells (NCI), 48 h
[1] = test system: SF-295
[2] = test system: Hs-578T
[3] = test system: MOLT-4
[4] = test system: MDA-MB-231
[5] = test system: MCF7
[6] = test system: SNB-75
[7] = test system: SF-539
[8] = test system: CAKI-1
[9] = test system: OVCAR-5
[10] = test system: SNB-19
[11] = test system: OVCAR-8
[12] = test system: 786-0
[13] = test system: UO-31
[14] = test system: HCT-15
[15] = test system: K562
[16] = test system: DU-145
[17] = test system: KM12
[18] = test system: SF-268
[19] = test system: HOP-62
[20] = test system: SW-620
[21] = test system: HCT-116
[22] = test system: SK-MEL-5
[23] = test system: COLO 205
[24] = test system: T47D
[25] = test system: MDA-N
[26] = test system: U-251
[27] = test system: NCI-H23
[28] = test system: NCI/ADR-RES
[29] = test system: UACC-62
[30] = test system: IGROV-1
[31] = test system: SR
[32] = test system: TK-10
[33] = test system: SK-MEL-28
[34] = test system: UACC-257
[35] = test system: OVCAR-4
[36] = test system: HT-29
[37] = test system: RXF 393
[38] = test system: EKVX
[39] = test system: A549
[40] = test system: SK-OV-3
[41] = test system: OVCAR-3
[42] = test system: SK-MEL-2
[43] = test system: LOX IMVI
[44] = test system: NCI-H226
[45] = test system: CCRF-CEM
[46] = test system: Malme-3M
[47] = test system: PC-3
[48] = test system: M14
[49] = test system: A498
[50] = test system: ACHN
[51] = test system: RPMI-8226
[52] = test system: HOP-92
[53] = test system: NCI-H460
[54] = test system: SN12C
[55] = test system: HL-60

Compound: COc1ccc2nc3c([N+](=O)[O-])ccc(NCCN(C)C)c3c(N)c2c1
- GI50 [1]: 1750 nM (inactive)
- GI50 [2]: 2620 nM (inactive)
- GI50 [3]: 479 nM (active)
- GI50 [4]: 234 nM (active)
- GI50 [5]: 513 nM (active)
- GI50 [6]: 1080 nM (active)
- GI50 [7]: 1560 nM (inactive)
- GI50 [8]: 1800 nM (inactive)
- GI50 [9]: 1520 nM (inactive)
- GI50 [10]: 1840 nM (inactive)
- GI50 [11]: 1660 nM (inactive)
- GI50 [12]: 1180 nM (inactive)
- GI50 [13]: 1350 nM (inactive)
- GI50 [14]: 1160 nM
- GI50 [15]: 223 nM (active)
- GI50 [16]: 1750 nM (inactive)
- GI50 [17]: 469 nM (active)
- GI50 [18]: 1340 nM (inactive)
- GI50 [19]: 1660 nM (inactive)
- GI50 [20]: 181 nM (active)
- GI50 [21]: 145 nM (active)
- GI50 [22]: 1810 nM (inactive)
- GI50 [23]: 859 nM (active)
- GI50 [24]: 1170 nM (inactive)
- GI50 [25]: 1730 nM (inactive)
- GI50 [26]: 1660 nM (inactive)
- GI50 [27]: 1690 nM (inactive)
- GI50 [28]: 847 nM (active)
- GI50 [29]: 1820 nM (inactive)
- GI50 [30]: 1150 nM (inactive)
- GI50 [31]: 679 nM (active)
- GI50 [32]: 1600 nM (inactive)
- GI50 [33]: 2140 nM (inactive)
- GI50 [34]: 1910 nM (inactive)
- GI50 [35]: 1240 nM (inactive)
- GI50 [36]: 508 nM (active)
- GI50 [37]: 1570 nM (inactive)
- GI50 [38]: 1710 nM (inactive)
- GI50 [39]: 1550 nM (inactive)
- GI50 [40]: 1610 nM (inactive)
- GI50 [41]: 562 nM (active)
- GI50 [42]: 2370 nM (inactive)
- GI50 [43]: 537 nM (active)
- GI50 [44]: 1970 nM (inactive)
- GI50 [45]: 170 nM (active)
- GI50 [46]: 1340 nM (inactive)
- GI50 [47]: 1460 nM (inactive)
- GI50 [48]: 1490 nM (inactive)
- GI50 [49]: 2070 nM (inactive)
- GI50 [50]: 1090 nM (active)
- GI50 [51]: 70.3 nM (active)
- GI50 [52]: 695 nM (active)
- GI50 [53]: 1470 nM (inactive)
- GI50 [54]: 1330 nM (inactive)
- GI50 [55]: 194 nM (active)
